Results reported in patent US4482709A, “Inclusion compounds of cyclodextrin with sulfur-containing compounds” (Santen Pharmaceutical Co., Ltd., priority 1981, dated 1984).
≈ marks a conversion by molar mass, not a printed value.

Test: Solubility Test (solubility in water)
Type: physicochemical
Source text: Solubility in water of inclusion compound of cyclodextrin with compound A or compound C is shown below. As the result, the inclusion compound is extremely more soluble in water than the starting compound.

Row | SMILES | solubility
1 | O=C(O)[C@@H]1CS[C@H](c2ccccc2O)N1C(=O)CCS [Compound A, (2R,4R)-2-(2-hydroxyphenyl)-3-(3-mercaptopropanoyl)-4-thiazolidinecarboxylic acid] | 1600 µg/mL (≈ 5110 µM)
2 | O=C(O)[C@@H]1CSC(c2ccccc2O)N1C(=O)CCSSCCC(=O)N1C(c2ccccc2O)SC[C@H]1C(=O)O (stereo partly drawn) [Compound C, (4R,4'R)-3,3'-[3,3'-dithiobis(propanoyl)]bis[2-(2-hydroxyphenyl)-4-thiazolidinecarboxylic acid]] | 100 µg/mL (≈ 160 µM)
